Results from patent publication US20200306210A1 (ZOGENIX INTERNATIONAL LIMITED, priority 2017, published 2020).

Assays:
[1] = tested on: children and young adults with Dravet syndrome; experiment: Study 1: Clinical Global Impression of Improvement (CGI-I); type: in vivo, Human; conditions: either 0.2 or 0.8 mg/kg/day dose
Method: CGI-S and CGI-I ratings were made by clinical investigators and parent/caregivers in a series of phase III trials of fenfluramine. CGI changes were measured in two randomized, controlled trials with results reported herein. Study 1 was conducted as described in Example 1 and CGI ratings were made according to a set schedule of visits made to the clinic. Tables of results and bar graphs of the statistical analyses of CGI ratings for Study 1 at visit twelve (day 113) are provided in FIGS. 1-4. […] Similar results were obtained with investigator CGI-I rating.
In Study 1, subjects were assessed using Clinical Global Impression (CGI), allowing the parent/caregiver and principal investigator to assess improvement, as well as the Quality of Life in Childhood Epilepsy (QOLCE) Scale and the Pediatric Quality of Life Inventory (PedsQL) to measure changes in the quality of life of the subject. Comparisons between treatment groups were made using Wilcoxon rank sum tests.
(§1) The CGI scale measures the change in the subject's clinical status from a specific point in time, i.e., the Baseline Period (and also referred to as the CGI-S, an initial ranking of severity). The CGI rating scale permits a global evaluation of the subject's improvement over time.

[2] = tested on: subjects with Dravet syndrome; experiment: Study 1503: open-label long-term extension, CGI-I at baseline and final visit; type: in vivo, Human; conditions: OLE Final Visit
Method: Study 1503 was an open-label, long-term safety study of ZX008 in subjects with Dravet syndrome who successfully completed 14 weeks of treatment in 1501, 1502, or 1504 Cohorts 1 and 2. […] CGI-S(baseline scores) were determined at entry into 1503 (i.e., after completing a blinded 16 week trial) and then again at each patient's final visit. FIGS. 7 and 8, and Tables 3 and 4 present numbers of patients having each of the 7 ratings and statistical calculations of improvements.
as §1

[3] = tested on: Dravet syndrome patients; conditions: cited from earlier work
[4] = tested on: Dravet syndrome patients; conditions: Dravet syndrome (Devinsky, NEJM 2017); cited from earlier work
[5] = target: serotonin 5-HT2B receptor (Homo sapiens, UniProt P41595); conditions: cited from earlier work
[6] = target: T1, serotonin 5-HT2C receptor (Homo sapiens, UniProt P28335); conditions: cited from earlier work
T1 sequence (P28335 33-458): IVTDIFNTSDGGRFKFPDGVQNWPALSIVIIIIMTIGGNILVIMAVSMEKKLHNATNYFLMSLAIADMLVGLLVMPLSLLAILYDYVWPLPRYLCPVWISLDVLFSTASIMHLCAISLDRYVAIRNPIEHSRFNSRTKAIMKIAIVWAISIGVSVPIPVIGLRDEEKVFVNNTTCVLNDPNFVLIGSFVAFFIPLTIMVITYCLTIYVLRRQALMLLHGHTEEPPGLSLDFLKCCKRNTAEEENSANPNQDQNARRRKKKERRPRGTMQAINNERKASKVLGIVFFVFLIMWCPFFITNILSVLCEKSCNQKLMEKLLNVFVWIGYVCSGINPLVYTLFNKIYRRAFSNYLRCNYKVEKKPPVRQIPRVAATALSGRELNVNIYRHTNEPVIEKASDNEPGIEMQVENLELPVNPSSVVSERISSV

[7] = target: serotonin 5-HT2A receptor (Homo sapiens, UniProt P28223); conditions: cited from earlier work
Chain of serotonin 5-HT2A receptor (P28223 whole entry): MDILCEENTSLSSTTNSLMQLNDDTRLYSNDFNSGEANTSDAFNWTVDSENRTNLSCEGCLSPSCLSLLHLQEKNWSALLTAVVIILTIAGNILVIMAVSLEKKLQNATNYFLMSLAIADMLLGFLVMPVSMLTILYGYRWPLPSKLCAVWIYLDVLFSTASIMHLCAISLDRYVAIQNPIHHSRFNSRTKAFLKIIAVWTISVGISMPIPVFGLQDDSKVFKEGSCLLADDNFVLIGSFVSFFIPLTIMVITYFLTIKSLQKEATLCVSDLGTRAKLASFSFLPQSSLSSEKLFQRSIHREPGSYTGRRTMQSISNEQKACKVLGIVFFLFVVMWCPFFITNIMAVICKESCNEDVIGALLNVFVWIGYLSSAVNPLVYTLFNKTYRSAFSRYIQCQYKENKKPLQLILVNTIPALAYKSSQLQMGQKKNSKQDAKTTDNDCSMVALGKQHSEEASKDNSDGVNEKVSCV

Chain of serotonin 5-HT2B receptor (P41595 whole entry): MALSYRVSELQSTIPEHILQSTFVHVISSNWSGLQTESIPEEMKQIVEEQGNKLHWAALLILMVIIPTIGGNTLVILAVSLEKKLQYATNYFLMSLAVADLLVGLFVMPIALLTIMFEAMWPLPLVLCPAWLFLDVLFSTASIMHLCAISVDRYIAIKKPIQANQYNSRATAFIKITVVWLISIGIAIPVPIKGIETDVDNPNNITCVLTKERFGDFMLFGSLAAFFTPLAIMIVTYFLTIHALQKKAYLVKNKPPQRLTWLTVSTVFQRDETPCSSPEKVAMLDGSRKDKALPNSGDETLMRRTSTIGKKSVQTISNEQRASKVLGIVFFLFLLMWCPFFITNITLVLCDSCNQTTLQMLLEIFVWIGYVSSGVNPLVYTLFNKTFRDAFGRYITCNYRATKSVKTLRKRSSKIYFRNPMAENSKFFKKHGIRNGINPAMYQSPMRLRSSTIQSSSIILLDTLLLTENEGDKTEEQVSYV

CCNC(C)Cc1cccc(C(F)(F)F)c1 (racemic) [fenfluramine, (RS)—N-ethyl-1-[3-(trifluoromethyl)phenyl]propan-2-amine, reference compound]
Parents/caregivers rating their children 'very much improved' or 'much improved' (CGI-I) vs placebo group [1]: Significantly more
CGI-I investigator, Improved (1, 2, 3), % [2]: 85.4%
CGI-I investigator, Much/very much improved (1, 2), % [2]: 64.2%
CGI-I parent/caregiver, Improved (1, 2, 3), % [2]: 82.3%
CGI-I parent/caregiver, Much/very much improved (1, 2), % [2]: 62.5%

CC(C)(C)C(O)/C=C/c1ccc2c(c1)OCO2 (stereo not shown) [Stiripentol, stiripentol]
Reduction of tonic-clonic seizure rate [3]: 70%

C=C(C)[C@@H]1CCC(C)=C[C@H]1c1c(O)cc(CCCCC)cc1O [cannabidiol]
Cognitive function, active treatment groups vs placebo [4]: did not achieve significant difference from placebo

CC(N)Cc1cccc(C(F)(F)F)c1 (stereo not shown) [norfenfluramine]
Binds to and activates serotonin 5-HT2B receptor, affinity [5]: high affinity
Binds to and activates serotonin 5-HT2C receptor, affinity [6]: high affinity
Binds to and activates serotonin 5-HT2A receptor, affinity [7]: moderate affinity
